Measured values taken from US11834424B2, “Compounds useful as chaperone-mediated autophagy modulators” (ALBERT EINSTEIN COLLEGE OF MEDICINE, priority 2018, dated 2023).

Test: in vitro
Details: human, microsomes; for CLint(mic) / Remaining (T = 60 min): 3 μM; for Remaining (T = 60 min): 1 h; for CLint scaled at 3 μM: CLint(liver)
Method: Microsome stability was determined in human, rat, and mouse, liver microsomes. Compound at 3 μM final concentration along with 0.5 mg/mL microsome protein and 1 mM NADPH was incubated for 0, 5, 15, 30 and 60 min. As a negative control, test compound was incubated with microsomes in the absence of NADPH. Samples were quenched with methanol and centrifuged for 25 min at 2500 rpm to precipitate proteins. Supernatants were analyzed (N=3) by LC-MS/MS. The In peak area ratio (compound peak area/internal standard peak area) was plotted against time and the gradient of the line determined the elimination rate constant [k=(−1)(slope)].
R^2 is the correlation coefficient of the linear regression for the determination of kinetic constant. T1/2 is the half life and CLint (mic) is the intrinsic clearance. CLint(liver)=CLint (mic)*mg microsomal protein/g liver weight*g liver weight/kg body weight. Liver weight/kg body weight is 20 g/kg for human.

## CC(=O)Nc1ccc(C2=Nc3ccc(Cl)cc3OC2)cc1 [CA77, reference compound]
  half-life at 3 μM: 34 min
  CLint(mic): 40.8 µL/min/mg
  Remaining (T = 60 min): 25.9%
  CLint scaled at 3 μM: 36.7 mL/min/kg

## CC(=O)Nc1ccc(-c2cnc3cc(Cl)ccc3n2)cc1 [CA77.1, N-(4-(6-chloroquinoxalin-2-yl)phenyl)acetamide]
  half-life at 3 μM: 20.6 min
  CLint(mic): 67.2 µL/min/mg
  Remaining (T = 60 min): 10.8%
  CLint scaled at 3 μM: 60.5 mL/min/kg
